Data from US6455761B1, “Agrobacterium-mediated transformation of turnip rape” (Helsinki University Licensing Ltd. Oy, priority 1997, dated 2002).

Legend:
[1] = test system: inflorescence stem segments of turnip rape plants; assay: Effect of cultivation factors on transformation of inflorescence stem segments by Agrobacterium LBA4404pGPTV-KAN-GUSint (histological GUS assay); type: cell-based, Brassica rapa ssp. oleifera; conditions: for Average %: average of cultivars
explants of turnip rape = test system: explants of turnip rape
Experimental: (§1) Selection and regeneration. […] Thereafter the whole explants or cut callus pieces with the green nodules and primordia were transferred on hormone free MS medium, where nodules developed primordia and shoots. Silver nitrate in concentration 0-90 μM (0-15 mg/l) and porous paper tape for sealing of Petri dishes were used in transformation and regeneration of transgenic plants.
Shoot regeneration. Effects of different hormones on various explants of mature plants of turnip rape were tested in preliminary experiments to achieve sufficient shoot regeneration.
Silver nitrate application and aeration. The use of silver nitrate in in vitro cultivation of turnip rape has often been reported as an essential factor for shoot regeneration (Chi et al. 1990; Hachey et al. 1991; Mukhopadhuay et al. 1992; Radke et al. 1992). […] We have examined the effect of silver nitrate on regeneration capacity of explants of turnip rape.
Selection. To prevent Agrobacterium growth on the medium we used claforan (cefotaxim) 500 mg/l or carbenicillin 200 mg/l.

Agrobacterium = conditions: 5 mg/l (30 μM); MS medium during co-cultivation with plant explants
Text: We have transformed inflorescence stem segments of turnip rape using different concentrations of silver nitrate and sealed plates with plant explants by parafilm or porous paper tape. Transformation efficiency was examined in histological GUS assay 4 days after co-cultivation. Transformation efficiency is shown in Table 4 as proportion of explants with blue inclusions in the calli per all explants (also in %).

[2] = test system: turnip rape plants cv. Valtti and Sisu; assay: Transgenic shoot regeneration under antibiotic selection
Experimental: as §1
Selection on kanamycin or hygromycin was applied immediately after co-cultivation of the explants with Agrobacteria, three days after beginning of the whole procedure. Antibiotics were used in concentrations 20-25 mg/l during all steps of regeneration and cultivation of transgenic plants.
Using nptII and hpt genes in transformation constructions provides the plants resistance to kanamycin and hygromycin, respectively. […] Because morfogenesis occurs mainly on the basal side of the stem segmets, explants are placed basal side down on the selection medium.
Turnip rape plants cv. Valtti and Sisu were transformed with LBA4404 pGPTV-KAN-GUSint and LBA4404 pGPTV-HPT-GUSint.
Analysis of transformation. Green regenerated shoots were checked for GUS activity. Leaves or leaf pieces were prepared for histological GUS assay as described above.

[3] = 100 μM AS added in MS medium during inoculation and cocultivation, cv. Sisu
[4] = 100 μM AS added in MS medium during inoculation and cocultivation, cv. Valtti
[5] = 100 μM AS in MS medium and Agrobacterium grown one night with 100 μM acetosyringone, cv. Sisu
[6] = 100 μM AS in MS medium and Agrobacterium grown one night with 100 μM acetosyringone, cv. Valtti
[7] = selection on 20 mg/l, cultivars Sisu and Valtti

SMILES: COc1cc(C(C)=O)cc(OC)c1O [AS, 3,5-dimethoxy-4-hydroxyacetophenon]
- Average % ([1]; 100 μM AS added in MS medium during inoculation and cocultivation): 41.6%
- GUS +/all [1, 3]: 24/65
- GUS +/all % [1, 3]: 36.9%
- GUS +/all [1, 4]: 36/78
- GUS +/all % [1, 4]: 46.2%
- Average % ([1]; 100 μM AS in MS medium and Agrobacterium grown one night with 100 μM acetosyringone): 46.6%
- GUS +/all [1, 5]: 29/65
- GUS +/all % [1, 5]: 44.6%
- GUS +/all [1, 6]: 35/72
- GUS +/all % [1, 6]: 48.6%

SMILES: O=[N+]([O-])[O-].[Ag+] [AgNO3, silver nitrate]
- Average % ([1]; 5 mg/l AgNO3): 29.5%
- GUS +/all % ([1]; 5 mg/l AgNO3, cv. Sisu): 27.1%
- GUS +/all ([1]; 5 mg/l AgNO3, cv. Sisu, 4 days after co-cultivation): 19/70
- GUS +/all ([1]; 5 mg/l AgNO3, cv. Valtti): 14/37
- GUS +/all % ([1]; 5 mg/l AgNO3, cv. Valtti): 37.8%
- Average % ([1]; 10 mg/l AgNO3): 37.6%
- GUS +/all ([1]; 10 mg/l AgNO3, cv. Sisu): 15/53
- GUS +/all % ([1]; 10 mg/l AgNO3, cv. Sisu): 28.3%
- GUS +/all ([1]; 10 mg/l AgNO3, cv. Valtti): 15/32
- GUS +/all % ([1]; 10 mg/l AgNO3, cv. Valtti): 46.9%
- Average % ([1]; 15 mg/l AgNO3): 37.6%
- GUS +/all ([1]; 15 mg/l AgNO3, cv. Sisu): 17/40
- GUS +/all % ([1]; 15 mg/l AgNO3, cv. Sisu): 42.5%
- GUS +/all ([1]; 15 mg/l AgNO3, cv. Valtti): 14/43
- GUS +/all % ([1]; 15 mg/l AgNO3, cv. Valtti): 32.6%
- effect on transformation ([1]; silver nitrate in the cultivation medium): does not have a negative effect on transformation
- Shoot regeneration optimum concentration (explants of turnip rape): 5 to 10 mg/L
- effect of high concentrations on cultivated calli (explants of turnip rape): browning and partial necrosis of cultivated calli
- effect on Agrobacterium growth (Agrobacterium): suppresses Agrobacterium growth

SMILES: CO/N=C(\C(=O)N[C@@H]1C(=O)N2C(C(=O)O)=C(COC(C)=O)CS[C@H]12)c1csc(N)n1 [Claforan, cefotaxim]
- recovering of transgenic shoots after inoculation with Agrobacteria ([2]; claforan used to prevent Agrobacterium growth): full block of recovering of transgenic shoots
- decrease of shoot regeneration frequency compared to carbenicillin (explants of turnip rape; claforan 500 mg/l vs carbenicillin 200 mg/l, data not shown): 2-5 times

SMILES: O=C(O)Cc1c[nH]c2ccccc12 [IAA, indole-3-acetic acid]
- effect on shoot regeneration relative to BAP and NAA (explants of turnip rape; data not shown): less effective than BAP and NAA

SMILES: NC[C@H]1O[C@H](O[C@H]2[C@H](O)[C@@H](O[C@H]3O[C@H](CO)[C@@H](O)[C@H](N)[C@H]3O)[C@H](N)C[C@@H]2N)[C@H](O)[C@@H](O)[C@@H]1O [Kanamycin]
- escape proportion ([2]; selection of transgenic shoots): 80-90%
- Escapes per green shoots [2, 7]: 52/59
- Escapes per green shoots % [2, 7]: 88%
- GUS positive per all explants [2, 7]: 7/182
- GUS positive per all explants % [2, 7]: 4%
- Green shoots per all explants [2, 7]: 59/182
- Green shoots per all explants % [2, 7]: 32%

SMILES: CC1(C)S[C@@H]2[C@H](NC(=O)C(C(=O)O)c3ccccc3)C(=O)N2[C@H]1C(=O)O (some centres unmarked) [carbenicillin]
- effect on regeneration (explants of turnip rape; 200 mg/l, data not shown): does not have an apparent negative effect on regeneration

SMILES: c1coc(CNc2ncnc3[nH]cnc23)c1 [kinetin]
- effect on shoot regeneration relative to BAP and NAA (explants of turnip rape; data not shown): less effective than BAP and NAA
